Experimental data published in paper PMC10385850, “Modified Hederagenin Derivatives Demonstrate Ex Vivo Anthelmintic Activity against Fasciola hepatica” (Pharmaceutics, 2023).
Entries after “also recorded” stand apart in the source; their conditions may differ.

Legend:
Format in all cases: cell-based, Fasciola hepatica
[1] = tested on: wild strain adult F. hepatica; assay: Ex vivo motility assay on adult liver flukes (wild strain); settings: 40 µM; for Effect on wild strain adult fluke motility, in words: 72 h; for Average motility of 4 parasites with 95% CI at 72 hour time point: wild strain adult flukes, score 1 good/normal to 6 no movement or dead
Description: Due to the high number of active molecules and a shortage of Italian strain adult liver flukes, the eleven hit compounds were screened for 72 h at 40 µM (in 0.4% DMSO) on wild strain adult F. hepatica (n = 4/condition) of unknown provenance (Table S3). The protocol for culturing and scoring (motility) the activity of these compounds was previously described (1—good/normal; 2—moderate; 3—resting (less than 10 s pulses of body and head), 4—apathetic (less than 2 s pulses of body and head), 5—paralysis and 6–no movement or dead worms). Six compounds were deemed active in these assays and were selected for further screening.

[2] = tested on: immature F. hepatica flukes (Italian strain); assay: Ex vivo motility assay on immature liver flukes (Italian strain), single concentration and dose response; settings: 40 µM
Description: The six selected compounds (at 40 µM in 0.4% DMSO) were evaluated on immature flukes (n = 4/condition) at 24, 48 and 72 h (Table S4). The protocol for culturing and scoring (motility) of these life stages have been previously described. Due to restricted numbers of immature worms, a dose response assay was conducted only for MC042. Here, immature worms (n = 2/concentration tested) were screened against descending concentrations of MC042 (40 µM, 13.3 µM and 4.4 µM); motility scores were recorded at 24, 48 and 72 h (Table S5). The scoring pattern used is identical to that described for NEJs.

[3] = tested on: F. hepatica newly excysted juveniles (NEJs), Italian strain; assay: Ex vivo screen against newly excysted juveniles (NEJs), phenotype and motility scoring; settings: 10 µM; for Average motility of 25 NEJs with 95% CI, 24 hours / Average motility of 25 NEJs with 95% CI, 48 hours / Average motility of 25 NEJs with 95% CI, 72 hours: motility score 1 good/normal to 5 no movement; for Average phenotype of 25 NEJs with 95% CI, 24 hours / Average phenotype of 25 NEJs with 95% CI, 48 hours / Average phenotype of 25 NEJs with 95% CI, 72 hours: ultrastructure score 1 normal to 6 dead or dissolved; for Activity against NEJs (first screen), in words: 72 h co-culture
Description: […] The NEJs were excysted from metacercariae and assayed at 10 μM (in 0.1% DMSO) final concentration alongside negative (0.1% DMSO) and positive (10 μM TCBZ, in 0.1% DMSO) controls as previously described. The MC and IVL compound series were screened separately.
The motility (1—good/normal; 2—moderate; 3—low; 4—very little; 5—no movement) and phenotypic (ultrastructural changes) scores were noted according to a previously described scoring matrix (Figure S1 and Table S2).

Row | SMILES | Effect on wild strain adult fluke motility, in words [1] | Average motility of 4 parasites with 95% CI at 72 hour time point [1] | Average motility of 4 parasites with 95% CI at 24 hour time point ([2]; 24 h, immature flukes, score 1 normal to 5 no movement or death) | Average motility of 4 parasites with 95% CI at 48 hour time point ([2]; 48 h, immature flukes, score 1 to 5) | Average motility of 4 parasites with 95% CI at 72 hour time point ([2]; 72 h, immature flukes, score 1 to 5) | Effect on immature fluke motility, in words ([2]; by 72 h) | Average motility of 25 NEJs with 95% CI, 24 hours [3] | Average phenotype of 25 NEJs with 95% CI, 24 hours [3] | Average motility of 25 NEJs with 95% CI, 48 hours [3] | Average phenotype of 25 NEJs with 95% CI, 48 hours [3] | Average motility of 25 NEJs with 95% CI, 72 hours [3] | Average phenotype of 25 NEJs with 95% CI, 72 hours [3] | Activity against NEJs (first screen), in words [3]
1 | CC(=O)OC[C@@]1(C)C2CC[C@]3(C)C(CC=C4C5CC(C)(C)CC[C@]5(NC(=O)N5CCCC5)CC[C@]43C)[C@@]2(C)CC[C@@H]1O (stereo partly drawn) [MC057, ((3S,4R,6aR,6bS,8aS,14bR)-3-Hydroxy-4,6a,6b,11,11,14b-hexamethyl-8a-(pyrrolidine-1-carbox-amido)-1,2,3,4,4a,5,6,6a,6b,7,8,8a,9,10,11,12,12a,14,14a, 14b-icosahydropicen-4-yl)-methyl acetate] | partial paralysis | 5.00 (5.0;5.0) | 3.50 (2.5;4.4) | 4.25 (3.3;5.1) | 4.50 (3.5;5.4) | least active in this series | 5.00 (5.0;5.0) | 6.00 (6.0;6.0) | 5.00 (5.0;5.0) | 6.00 (6.0;6.0) | 5.00 (5.0;5.0) | 6.00 (6.0;6.0) | maximal alterations to both phenotype/ultrastructure and motility
2 | CC(=O)OCC1(C)C(OC(C)=O)CCC2(C)C1CCC1(C)C2CC=C2C3CC(C)(C)CCC3(NC(=O)N3CCCC3)CCC21C (centres unmarked) [MC056] | less severe motility defects; also recorded: limited activity | 4.25 (3.3;5.1) | – | – | – | – | 5.00 (5.0;5.0) | 6.00 (6.0;6.0) | 5.00 (5.0;5.0) | 6.00 (6.0;6.0) | 5.00 (5.0;5.0) | 6.00 (6.0;6.0) | maximal alterations to both phenotype/ultrastructure and motility
3 | CC(=O)OC[C@]12CCC(C)(C)CC1C1=CCC3[C@@]4(C)CC[C@H](O)[C@@](C)(CO)C4CC[C@@]3(C)[C@]1(C)CC2 (stereo partly drawn) [MC037, ((4aS,6aS,6bR,9R,10S,12aR)-10-Hydroxy-9-(hydroxymethyl)-2,2,6a,6b,9,12a-hexamethyl-1,3,4,5,6,6a, 6b,7,8,8a,9,10,11,12,12a,12b,13,14b-octadecahydropicen-4a(2H)-yl)methyl acetate] | less severe motility defects | 3.25 (2;4.4) | – | – | – | – | 5.00 (5.0;5.0) | 6.00 (6.0;6.0) | 5.00 (5.0;5.0) | 6.00 (6.0;6.0) | 5.00 (5.0;5.0) | 6.00 (6.0;6.0) | maximal alterations to both phenotype/ultrastructure and motility
4 | CCCNC(=O)N[C@]12CCC(C)(C)CC1C1=CCC3[C@@]4(C)CCC5OC(C)(C)OC[C@@]5(C)C4CC[C@@]3(C)[C@]1(C)CC2 (stereo partly drawn) [MC022, 1-((4aR,6aR,6bS,8aS,14bR)-2,2,4a,6a,6b,11,11,14b-Octamethyl-4a,5,6,6a,6b,7,8,9,10,11, 12,12a,14,14a, 14b,15,16,16a-octadecahydro-4H-piceno[3,4-d][1,3]dioxin-8a(4bH)-yl)-3-propylurea] | – | – | – | – | – | – | 2.68 (1.9;3.4) | 4.60 (4.2;4.9) | 4.12 (3.7;4.4) | 5.08 (4.7;5.4) | 4.96 (4.8;5) | 5.88 (5.6;6.1) | inactive against NEJs
5 | CC1(C)CC[C@]2(NC(=O)N3CCC[C@H]3C(=O)O)CC[C@]3(C)C(=CCC4[C@@]5(C)CCC6OC(C)(C)OC[C@@]6(C)C5CC[C@]43C)C2C1 (stereo partly drawn) [MC033, (((4aR,6aR,6bS,8aS,14bR)-2,2,4a,6a,6b,11,11,14b-Octamethyl-4a,5,6,6a,6b,7,8,9,10,11,12,12a,14,14a, 14b,15,16,16a-octadecahydro-4H-piceno[3,4-d][1,3]dioxin-8a(4bH)-yl)carbam-oyl)-L-proline] | – | – | – | – | – | – | 3.80 (3.4;4.1) | 3.28 (2.7;3.8) | 3.88 (3.5;4.2) | 3.44 (2.8;4) | 3.76 (3.2;4.2) | 4.04 (3.3;4.6) | –
6 | CC1(C)CC[C@]2(NC(N)=O)CC[C@]3(C)C(=CCC4[C@@]5(C)CCC6OC(C)(C)OC[C@@]6(C)C5CC[C@]43C)C2C1 (stereo partly drawn) [MC024, 1-((4aR,6aR,6bS,8aS,14bR)-2,2,4a,6a,6b,11,11,14b-Octamethyl-4a,5,6,6a,6b,7,8,9,10,11, 12, 12a,14,14a, 14b,15,16,16a-octadecahydro-4H-piceno[3,4-d][1,3]dioxin-8a(4bH)-yl)urea] | less severe motility defects | 4.25 (3.2;5.7) | – | – | – | – | 5.00 (5.0;5.0) | 5.00 (5.0;5.0) | 5.00 (5.0;5.0) | 5.00 (5.0;5.0) | 5.00 (5.0;5.0) | 5.00 (5.0;5.0) | maximal alterations to both phenotype/ultrastructure and motility
7 | CC1(C)CC[C@]2(NC(=O)NCc3ccccc3)CC[C@]3(C)C(=CCC4[C@@]5(C)CCC6OC(C)(C)OC[C@@]6(C)C5CC[C@]43C)C2C1 (stereo partly drawn) [MC017, 1-Benzyl-3-((4aR,6aR,6bS,8aS,14bR)-2,2,4a,6a,6b,11,11,14b-octamethyl-4a,5,6,6a,6b,7,8,9,10,11,12,12a,14,14a,14b,15,16,16a-octadecahydro-4H-piceno[3,4-d][1,3]dioxin-8a(4bH)-yl)urea] | – | – | – | – | – | – | 4.12 (3.7;4.5) | 3.28 (2.5;4) | 4.0 (3.5; 4.4) | 4.04 (3.3;4.6) | 3.92 (3.3; 4.4) | 4.12 (3.4;4.7) | –
8 | CC1(C)CC[C@]2(NC(=O)N3CCCC3)CC[C@]3(C)C(=CCC4[C@@]5(C)CCC6OC(C)(C)OC[C@@]6(C)C5CC[C@]43C)C2C1 (stereo partly drawn) [MC023, N-((4aR,6aR,6bS,8aS,14bR)-2,2,4a,6a,6b,11,11,14b-Octamethyl-4a,5,6,6a,6b,7,8,9,10,11,12,12a,14,14a, 14b,15,16,16a-octadecahydro-4H-piceno[3,4-d][1,3]dioxin-8a(4bH)-yl)-pyrolidine-1-carboxamide] | less severe motility defects | 4.75 (3.5;5.9) | – | – | – | – | 5.00 (5.0;5.0) | 5.00 (5.0;5.0) | 5.00 (5.0;5.0) | 5.00 (5.0;5.0) | 5.00 (5.0;5.0) | 5.00 (5.0;5.0) | maximal alterations to both phenotype/ultrastructure and motility
